# Reference: paper PMC11767423, “Design, Synthesis, and Antioxidant and Anti-Tyrosinase Activities of (Z)-5-Benzylidene-2-(naphthalen-1-ylamino)thiazol-4(5H)-one Analogs: In Vitro and In Vivo Insights” (Molecules, 2025)
# Experiments:
# [1] = Assay for ABTS+ radical scavenging; settings: 100 μM
# Experimental: The ABTS^+-scavenging efficacy of compounds 1–15 was determined by oxidizing ABTS with K2S2O8 to prepare ABTS^+. The prepared ABTS^+ solution was mixed with the test samples (1–15 and Trolox, a positive control) and the radical-scavenging efficacy of the test samples was explored by measuring the decrease in optical density at 732 nm. All test samples were tested at 100 μM.
# To acquire ABTS^+ radicals, ABTS (14 mM in 20 mL H2O) was mixed with K2S2O8 (4.9 mM in 20 mL H2O), an oxidant agent, and stored at 22 °C in a place without light for 15 h. The absorbance of the prepared ABTS^+ radical solution was adjusted to 0.70 ± 0.01 at 732 nm by adding methanol. Test samples (Trolox [positive control] and 1–15) were dissolved in a co-solvent (DMSO:EtOH = 1:10 [v/v]). The diluted ABTS^+ radical solution (90 μL) was added to the test sample solution (10 μL) in each well of a 96-well plate and held at 22 °C in the dark for 2 min. The optical density of each well was recorded at 732 nm every 1 min for 10 min using an ELISA reader. The final concentration of test samples was 100 μM. %Radical-scavenging activity was determined using the formula 100 × [(Abscon − Abssam)/Abscon], where Abscon and Abssam represent the optical densities of the control and the samples, respectively.
# [2] = Assay for DPPH radical scavenging; settings: 500 μM; 30 min in the dark
# Experimental: To evaluate the DPPH radical-scavenging efficacy of 1–15, a DPPH methanol solution was mixed with compounds 1–15, and the mixture was left in the dark. After 30 min, the radical-scavenging efficacy of each compound was determined by measuring the optical density at 517 nm. Vitamin C (L-ascorbic acid) was used for comparing radical-scavenging activity, and all test samples were treated at 500 μM.
# DPPH was dissolved in methanol to prepare a 0.2 mM solution, and test samples (vitamin C [L-ascorbic acid, LA; positive control] and 1–15) were dissolved in DMSO to prepare a 5 mM solution. The DPPH methanolic solution (180 μL) was added to the test sample DMSO solution (20 μL) in each well of a 96-well microplate and kept in a place without light for 30 min at 22 °C. Using a VersaMax™ ELISA reader, the optical density of each well was recorded at 517 nm to determine DPPH radical-scavenging activity.
# [3] = Assay for ROS scavenging (SIN-1/DCFH); settings: 40 μM sample; 10 μM SIN-1
# Experimental: To assess the ability of compounds 1–15 to scavenge ROS, 2′,7′-dichlorodihydrofluorescein (DCFH) solution, which was obtained from hydrolysis of DCFH diacetate by esterase, was mixed with 3-morpholinosydnonimine (SIN-1), a ROS generator, and test samples (1–15 and Trolox, a positive material). ROS produces 2′,7′-dichlorofluorescein (DCF), a fluorescent material, by oxidizing DCFH. The ROS-scavenging activity of the samples was determined by measuring the fluorescence of DCF. The results were obtained at 10 μM SIN-1 and 40 μM sample.
# To obtain 2′,7′-dichlorodihydrofluorescein (DCFH) solution, esterase (3 units/2 mL) was mixed with 2.5 mM DCFH diacetate and 50 mM phosphate buffer (pH 7.4). After incubating the mixture at 22 °C for 25 min, it was kept in the dark. 3-Morpholinosydnonimine (SIN-1) and compounds 1–15 were dissolved in phosphate buffer and DMSO, respectively. SIN-1 (10 µL) and compound (10 µL) were added to each well of a 96-well black plate containing phosphate buffer (180 µL), and the concentrations of SIN-1 and compound were 10 and 40 μM, respectively. Trolox (40 μM) was used as a positive material. […] To measure the fluorescence of 2′,7′-dichlorofluorescein at 535 nm, a microplate reader (Berthold Advances GmbH &Co., Bad Wildbad, Germany) was utilized with an excitation wavelength of 485 nm. […]
# [4] = system: B16F10 cellular tyrosinase; assay: Cellular tyrosinase activity assay in B16F10 cells; assay type: cell-based; settings: 20 μM; α-MSH + IBMX; 72 h; stimulators alone 3.9-fold vs untreated control
# Experimental: We analyzed the effect of 10 on B16F10 cellular tyrosinase activity to determine whether the ability of 10 inhibiting melanogenesis results from its ability to inhibit cellular tyrosinase activity.
# A 6-well microplate containing 5 × 10^3 B16F10 cells per well was incubated at 37 °C for 24 h. Compound 10 was added to each well at 5, 10, and 20 μM and incubated for 1 h, and then stimulators (1 μM α-MSH and 200 μM IBMX) were added to each well before 72 h incubation.
# To measure the cellular tyrosinase activity, the cells incubated for 72 h were washed 2 times with PBS, exposed to a 100 μL lysis buffer solution containing 5 μL 2 mM phenylmethylsulfonyl fluoride, 5 μL 20% Triton X-100, and 90 μL 50 mM phosphate buffer (pH 6.5), and cultivated for 30 min at −80 °C. After the lysates were centrifuged at 4 °C for 10 min at 10,000× g, an aliquot (80 μL) of the supernatants was added to each well of a 96-well microplate containing 20 μL of 10 mM L-DOPA. Data for the optical density at 475 nm were obtained every 1 min for 10 min at 37 °C using an ELISA reader to determine cellular tyrosinase activity.
# B16F10 cells [5] = assay: In situ cellular tyrosinase activity assay (L-DOPA staining); assay type: cell-based; settings: 20 μM; α-MSH + IBMX; 72 h, then L-DOPA 2 h
# Experimental: The effect of 10 on cellular tyrosinase activity was investigated in situ using L-DOPA and B16F10 cells. This experimental method allows for the direct observation of cellular melanin production. […] After 72 h of incubation, the cells were treated with L-DOPA for 2 h to induce melanin production.
# A 24-well plate containing 1 × 10^3 B16F10 cells per well was incubated at 37 °C for 24 h. […] After incubation for 72 h, the cells were fixed for 50 min using paraformaldehyde (4%), rinsed twice with PBS, and permeabilized for 2 min using Triton X-100 (0.1%). The cells were washed with PBS and 500 μL of 2 mM L-DOPA solution was added. After the cells were incubated at 37 °C for 2 h, stained images were obtained using a camera connected to a microscope (Motic, Hong Kong, China).
# [6] = system: tyrosinase activity of zebrafish larvae; assay: Tyrosinase activity in zebrafish larvae; assay type: in vivo, Danio rerio; settings: 20 mM; 76 hpf
# Experimental: To quantify the tyrosinase activity in zebrafish larvae, 60 zebrafish larvae at 76 hpf were divided into three Eppendorf tubes and centrifuged at 10,000× g for 10 min at 4 °C. After removing the supernatant, the residue was lysed using radioimmunoprecipitation assay buffer (100 μL) (Biosedang, Gyeonggi-do, Republic of Korea) and homogenized for 5 min using a sonicator. The lysate was centrifuged at 10,000× g for 10 min at 4 °C. The supernatants were transferred to a new Eppendorf tube and the protein content was quantified using a bicinchoninic acid protein assay kit (Thermo Fisher Scientific, Waltham, MA, USA). An aliquot (100 μL) of 1 mM L-DOPA was added to the new Eppendorf tube containing a total of 300 μg of protein in 100 μL of protein lysate. Eppendorf tubes were incubated for 1 h at 37 °C and then transferred to each well of a 96-well plate. The absorbance of each well was measured at 475 nm to determine the tyrosinase activity of zebrafish larvae.
# B16F10 cells [7] = assay: Melanin content assay in B16F10 cells; assay type: cell-based; settings: 20 μM; α-MSH + IBMX; 72 h; stimulators alone 3.9-fold
# Experimental: After 72 h, the effect of compound 10 on melanin biosynthesis was determined. A 6-well microplate containing 5 × 10^3 B16F10 cells per well was incubated at 37 °C for 24 h. Compound 10 was added to each well at 5, 10, and 20 μM and incubated for 1 h, and then stimulators (1 μM α-MSH and 200 μM IBMX) were added to each well before 72 h incubation. […] For the melanin content quantification, the cells were lysed at 60 °C for 1 h in 100 μL 1N-NaOH solution containing 10% DMSO after washing 2 times with phosphate-buffered saline (PBS). The cell lysates were transferred to a 96-well microplate and the optical density was measured at 405 nm using an ELISA reader to calculate the melanin content in each well.
# zebrafish larvae = assay: Zebrafish depigmentation assay using zebrafish embryos; assay type: in vivo, Danio rerio; design: pigmentation of zebrafish larvae: dose or concentration left out as unconfirmed; settings: treated at 28 hpf, read at 76 hpf
# Experimental: Zebrafish embryos were used to determine whether the synthesized compounds could inhibit melanin synthesis in vivo. […] The degree of depigmentation in zebrafish larvae was confirmed by photography 48 h later (Figure 8A). The density of the zebrafish larvae was measured using a CS analyzer 3.2 (Atto, Tokyo, Japan). […] To obtain zebrafish (wild type, Danio rerio) eggs for the experiment, six male and nine female zebrafish were raised separately in oxygen-connected tanks. Dried brine shrimp (Artemia salina, San Francisco Bay Brand, San Francisco, CA, USA) were fed as food three times per day. They were raised at 28 °C with 10 h of light blocking and 14 h of light exposure. The evening before obtaining zebrafish eggs, three females and two males were placed together in three zebrafish mating cages, and the light was blocked. The following morning, mating was induced by exposure to light. Harvested zebrafish eggs, obtained free of charge from the Zebrafish Center for Disease Modeling (Chungnam National University, Daejeon, Republic of Korea), were kept in an E3 embryonic solution containing methylene blue (MB) until the dechorionation process was performed. […] The pigmented areas in the zebrafish larval photographs were determined using an ATTO CS analyzer 3.2 (Tokyo, Japan).
SMILES,ABTS+ scavenging [1],DPPH radical scavenging [2],ROS-scavenging activity [3],cellular tyrosinase activity [4],in situ melanin formation (L-DOPA staining) (B16F10 cells [5]),tyrosinase activity of zebrafish larvae [6],stimulator-induced melanin content (B16F10 cells [7]),pigmentation of zebrafish larvae (zebrafish larvae)
"O=C1N=C(Nc2cccc3ccccc23)S/C1=C\c1ccc(O)c(O)c1 [Compound 8, (Z)-5-(3,4-Dihydroxybenzylidene)-2-(naphthalen-1-ylamino)thiazol-4(5H)-one]",99%,77%,"very strong ROS-scavenging capacity, which was more potent than that of Trolox",–,–,–,–,–
"O=c1cc(CO)occ1O [Kojic acid, reference compound]",–,–,–,3.3 fold,melanin production was suppressed compared with that in the group treated with only stimulators,significantly reduced tyrosinase activity,3.4 fold,pigmentation of zebrafish larvae was reduced
"Cc1c(C)c2c(c(C)c1O)CCC(C)(C(=O)O)O2 (stereo not shown) [Trolox, reference compound]",99%,–,strong ROS-scavenging activity,–,–,–,–,–
